In US8008061B2, “Trophic conversion of obligate phototrophic algae through metabolic engineering” (Martek Biosciences Corporation, priority 2000, dated 2011):

How the values were obtained:
Type in all cases: cell-based
Cylindrotheca fusiformis = test: Antibiotic sensitivity in diatoms, growth on solid media; conditions: C. fusiformis; for lowest concentration of the antibiotic per ml required for cell death or the highest concentration tested: Table C, 100% I.O. media, 2 weeks of illumination; for lowest concentration of antibiotic per ml required for cell death or the lowest concentration tested: media with reduced salinity, 25% of normal seawater
Protocol: (§1) The diatoms Phaeodactylum tricornutum, Cylindrotheca fusiformis, Cyclotella cryptica and Nitzschia alba were extensively tested for sensitivity to a series of antibiotics for which resistance genes are available, and the lowest concentrations which completely abrogate growth were determined for each antibiotic (Table C). […] These include antibiotics such as G418, Hygromycin, Kanamycin and Spectinomycin, which are routinely utilized for selection of other eukaryotic organisms.
(§2) The effective concentration range of the antibiotic in most cases was lowered by a factor of 10.
(§3) Cells of each diatom species were plated on solid media at salinity equivalents of 25-100% I.O. media, with a gradient of antibiotic concentrations. After 2 weeks of illumination the growth of the cells was assessed and the concentration of antibiotic required for cell death was determined. (Table D).

[1] = system: Phaeodactylum tricornutum; test: as above; conditions: P. tricornutum; for lowest concentration of the antibiotic per ml required for cell death or the highest concentration tested: Table C, 100% I.O. media, 2 weeks of illumination
Protocol: as §1, §2, §3

Cyclotella cryptica = test: as above; conditions: C. cryptica; for lowest concentration of the antibiotic per ml required for cell death or the highest concentration tested: Table C, 100% I.O. media, 2 weeks of illumination
Protocol: as §1, §2
After 2 weeks of illumination the growth of the cells was assessed and the concentration of antibiotic required for cell death was determined. (Table D).

[2] = system: diatoms Phaeodactylum tricornutum, Cylindrotheca fusiformis, Cyclotella cryptica and Nitzschia alba; test: Antibiotic sensitivity, statements for the diatoms tested together; conditions: for effect on growth of the diatoms: compared to effectiveness in other eukaryotic organisms; for cell death: 100% I.O. media, the diatoms tested
Protocol: as §1, §2, §3

Nitzschia alba = test: Antibiotic sensitivity in diatoms, growth on solid media; parameters: unit not given here; conditions: N. alba; Table C; 100% I.O. media; 2 weeks of illumination
Protocol: as §1, §3

## O=C(N[C@H](CO)[C@H](O)c1ccc([N+](=O)[O-])cc1)C(Cl)Cl [Chloramphenicol]
Cylindrotheca fusiformis
  lowest concentration of the antibiotic per ml required for cell death or the highest concentration tested: 100 mg per ml
[1]
  lowest concentration of the antibiotic per ml required for cell death or the highest concentration tested: 200 mg per ml
Cyclotella cryptica
  lowest concentration of the antibiotic per ml required for cell death or the highest concentration tested: 50 mg per ml

## CC[C@H]1OC(=O)[C@H](C)[C@@H](O[C@H]2C[C@@](C)(OC)[C@@H](O)[C@H](C)O2)[C@H](C)[C@@H](O[C@@H]2O[C@H](C)C[C@H](N(C)C)[C@H]2O)[C@](C)(O)C[C@@H](C)C(=O)[C@H](C)[C@@H](O)[C@]1(C)O [Erythromycin]
Cylindrotheca fusiformis
  lowest concentration of the antibiotic per ml required for cell death or the highest concentration tested: 100 mg per ml
[1]
  lowest concentration of the antibiotic per ml required for cell death or the highest concentration tested: 100 mg per ml
Cyclotella cryptica
  lowest concentration of the antibiotic per ml required for cell death or the highest concentration tested: 50 mg per ml

## CN[C@@H]1[C@@H](O)[C@@H](O[C@@H]2[C@@H](O)[C@H](O[C@H]3O[C@H]([C@@H](C)O)[C@@H](O)[C@H](O)[C@H]3N)[C@@H](N)C[C@H]2N)OC[C@]1(C)O [G418]
Cylindrotheca fusiformis
  lowest concentration of the antibiotic per ml required for cell death or the highest concentration tested: >1 mg per ml
[2]
  effect on growth of the diatoms: no significant effect on growth or were effective only at very high concentrations

## NC[C@H]1O[C@H](O[C@H]2[C@H](O)[C@@H](O[C@H]3O[C@H](CO)[C@@H](O)[C@H](N)[C@H]3O)[C@H](N)C[C@@H]2N)[C@H](O)[C@@H](O)[C@@H]1O [Kanamycin]
Cylindrotheca fusiformis
  lowest concentration of the antibiotic per ml required for cell death or the highest concentration tested: >1 mg per ml
[1]
  lowest concentration of the antibiotic per ml required for cell death or the highest concentration tested: >1 mg per ml
Cyclotella cryptica
  lowest concentration of the antibiotic per ml required for cell death or the highest concentration tested: >1 mg per ml

## COc1ccc(C[C@H](N)C(=O)N[C@H]2[C@@H](O)[C@H](n3cnc4c(N(C)C)ncnc43)O[C@@H]2CO)cc1 [Puromycin]
Cylindrotheca fusiformis
  lowest concentration of the antibiotic per ml required for cell death or the highest concentration tested: 100 mg per ml
[1]
  lowest concentration of the antibiotic per ml required for cell death or the highest concentration tested: 200 mg per ml
Cyclotella cryptica
  lowest concentration of the antibiotic per ml required for cell death or the highest concentration tested: 100 mg per ml

## CN[C@@H]1[C@H](O)[C@H](NC)[C@H]2O[C@@]3(O)C(=O)C[C@@H](C)O[C@H]3O[C@@H]2[C@H]1O [Spectinomycin]
Cylindrotheca fusiformis
  lowest concentration of the antibiotic per ml required for cell death or the highest concentration tested: >1 mg per ml
Cyclotella cryptica
  lowest concentration of the antibiotic per ml required for cell death or the highest concentration tested: >1 mg per ml
[2]
  effect on growth of the diatoms: no significant effect on growth or were effective only at very high concentrations

## [H]/N=C(/N)N[C@H]1[C@H](O)[C@@H](O)[C@H](O[C@@H]2O[C@@H](C)[C@](O)(C=O)[C@H]2O[C@@H]2O[C@@H](CO)[C@H](O)[C@@H](O)[C@@H]2NC)[C@@H](N/C(N)=N\[H])[C@@H]1O [Streptomycin]
Cylindrotheca fusiformis
  lowest concentration of the antibiotic per ml required for cell death or the highest concentration tested: >1 mg per ml
[1]
  lowest concentration of the antibiotic per ml required for cell death or the highest concentration tested: >1 mg per ml
Cyclotella cryptica
  lowest concentration of the antibiotic per ml required for cell death or the highest concentration tested: >1 mg per ml

## Cc1c(N)nc([C@H](CC(N)=O)NC[C@H](N)C(N)=O)nc1C(=O)N[C@H](C(=O)N[C@H](C)[C@@H](O)[C@H](C)C(=O)N[C@H](C(=O)NCCC1=N[C@@H](c2nc(C(=O)NCCCCN=C(N)N)cs2)CS1)[C@@H](C)O)[C@@H](O[C@@H]1O[C@@H](CO)[C@@H](O)[C@H](O)[C@@H]1O[C@H]1O[C@H](CO)[C@@H](O)[C@H](OC(N)=O)[C@@H]1O)c1cnc[nH]1 [Zeocin]
Cyclotella cryptica
  lowest concentration of the antibiotic per ml required for cell death or the highest concentration tested: 250 mg per ml
Nitzschia alba
  lowest concentration of the antibiotic per ml required for cell death or the highest concentration tested: >250
[2]
  cell death: resulted in cell death

## Bleomycin
Cylindrotheca fusiformis
  lowest concentration of the antibiotic per ml required for cell death or the highest concentration tested: >50 mg per ml

## Gentamicin
Cylindrotheca fusiformis
  lowest concentration of the antibiotic per ml required for cell death or the highest concentration tested: >1 mg per ml
[1]
  lowest concentration of the antibiotic per ml required for cell death or the highest concentration tested: >1 mg per ml
Cyclotella cryptica
  lowest concentration of the antibiotic per ml required for cell death or the highest concentration tested: >1 mg per ml

## Neomycin
Cylindrotheca fusiformis
  lowest concentration of the antibiotic per ml required for cell death or the highest concentration tested: >1 mg per ml
Cyclotella cryptica
  lowest concentration of the antibiotic per ml required for cell death or the highest concentration tested: >1 mg per ml
Nitzschia alba
  lowest concentration of the antibiotic per ml required for cell death or the highest concentration tested: >1

## Nourseothricin
Cylindrotheca fusiformis
  lowest concentration of the antibiotic per ml required for cell death or the highest concentration tested: >250 mg per ml
  lowest concentration of antibiotic per ml required for cell death or the lowest concentration tested: <10 mg (25%) mg per ml
Cyclotella cryptica
  lowest concentration of the antibiotic per ml required for cell death or the highest concentration tested: >250 mg per ml
Nitzschia alba
  lowest concentration of the antibiotic per ml required for cell death or the highest concentration tested: >250

## Phleomycin
Cylindrotheca fusiformis
  lowest concentration of antibiotic per ml required for cell death or the lowest concentration tested: <5 mg (25%) mg per ml
[1]; media with reduced salinity, 25% of normal seawater
  lowest concentration of antibiotic per ml required for cell death or the lowest concentration tested: <5 mg (25%) mg per ml
Cyclotella cryptica
  lowest concentration of the antibiotic per ml required for cell death or the highest concentration tested: 25 mg per ml
Cyclotella cryptica; media with reduced salinity, 10% of normal seawater
  lowest concentration of antibiotic per ml required for cell death or the lowest concentration tested: <5 mg (10%) mg per ml
[2]
  cell death: resulted in cell death
